# Measurements reported in paper PMC10202811 (Nature Medicine, 2023).
# “Also recorded” adds a separate entry of the source.
# Assay: Real-time neurobehavioral monitoring of CNS effects
# Type: in vivo, human
# From the text: The Adaptive Behavior Assessment System 3rd edition (ABAS-3; Harrison & Oakland, 2015) parent-report and self-report forms were used for the assessment of adaptive skills for individuals across all ages. Internal consistency has been reported to be 0.96 or greater for the composite adaptive behavior scale and between 0.86 and 0.99 for the subscales. Construct, convergent and discriminant validity have also been established for this measure.
# The Behavior Assessment System for Children 3rd edition (BASC-3; Reynolds & Kamphaus, 2015) is a questionnaire assessing behavioral, emotional and adaptive functioning across settings. For purposes of this study, the Parent Rating Scales (PRS) were administered for patients ages 2–5 years (Preschool form, PRS-P), 6–11 years (Child form, PRS-C) and 12–17 years (Adolescent form, PRS-A). The Self-Report of Personality (SRP) College Form was administered for adult patients ages 18–25 years. The reliability of the BASC-3 is strong, with internal consistency averaging above 0.80 for all the age-specific versions of this questionnaire, and average test–retest reliability is 0.86.
# The Behavior Rating Inventory of Executive Function (BRIEF; Gioia et al. 2000) is a questionnaire designed to assess behavioral manifestations of executive functioning and includes multiple versions. Parents of participants aged 2–5 years completed the 63-item preschool version (BRIEF-P). Parents of participants aged 6–17 years completed the BRIEF parent form, which consists of 86 individual items from which eight clinical scales, two indices and one composite score are derived. Patients who were ≥18 years of age completed a 75-item self-report adult version (BRIEF-A). Scores are standardized by age and gender, and high internal consistency (0.73–0.98) and test–retest reliability (0.76–0.90) were observed. Construct, content, convergent and discriminant validity have been established.
# CogState Research Battery (version 7; Sands et al. 2017; Heitzer et al. 2018) is a flexible battery of computer-based tests developed to monitor domains of cognition typically affected by cancer treatment, such as attention, memory, executive function and processing speed. Three different versions were used, one for children 3–5 years of age, one for children 6–9 years of age and one for patients 10 years of age and older. Age-standardized z-scores were derived based on the CogState normative dataset finalized in September 2014 for adults and in February 2016 for pediatrics, with construct validity, criterion validity, cultural equivalence and limited practice effects established.
# Only measures with established language translations were used. If measures were not available in a patient’s primary language, neurobehavioral toxicity assessment was based on the treating physician’s clinical determination using CTCAE version 4.0 grading criteria. All measures were individually administered by trained, qualified site personnel. Standardized scores were obtained for each instrument administered by comparing raw scores to normative samples provided by the test publishers. All evaluation results were reviewed, analyzed and interpreted centrally in real time by a pediatric neuropsychologist. Determination of clinically meaningful change in functioning (that is, significant decline) relative to baseline or previous screening exam was made at each retest interval. This was calculated using reliable change indices (RCIs) for individual tests or scales, which account for standard errors of measurement, to determine whether a statistically significant change in scores occurred between two timepoints. Meaningful change in performance was considered to occur when clinically significant decline (using 90% CI) was present in 50% of select administered measures. […]
# [1] = A1 (< 18 yrs), DL 5 (115 mg/m^2)
# [2] = B2 (< 18yrs), DL 5 (115 mg/m^2)
# [3] = patient with CNS DLT, A2 (≥ 18 yrs), 100 mg
# [4] = patient with CNS DLT, B2 (< 18yrs), DL 5 (115 mg/m^2)
# [5] = patients with CNS DLT, A2 (≥ 18 yrs), 150 mg
structure (smiles),measurement,setting,value
"C[C@H]1Oc2cc(cnc2N)-c2c(nn(C)c2C#N)CN(C)C(=O)c2ccc(F)cc21 [Lorlatinib, (10R)-7-amino-12-fluoro-2,10,16-trimethyl-15-oxo-10,15,16,17-tetrahydro-2H-8,4-(metheno)pyrazolo[4,3-h][2,5,11]-benzoxadiazacyclotetradecine-3-carbonitrile]","DLT Corresponding Neuropsych Symptoms, Cognitive",[1],Stable
same,"DLT Corresponding Neuropsych Symptoms, Psychosocial",[1],Adaptive Skills Depression
same,"DLT Corresponding Neuropsych Symptoms, Cognitive","A2 (≥ 18 yrs), 100 mg",Speed/Efficiency Working Memory Immediate Recall
same,"DLT Corresponding Neuropsych Symptoms, Psychosocial","A2 (≥ 18 yrs), 100 mg",Adaptive Skills Attention Working Memory
same,"DLT Corresponding Neuropsych Symptoms, Cognitive","A2 (≥ 18 yrs), 150 mg",Stable
same,"DLT Corresponding Neuropsych Symptoms, Psychosocial","A2 (≥ 18 yrs), 150 mg",Anxiety Depression Emotional Lability Atypicality^c; also recorded: Adaptive Skills Depression Emotional Lability Working Memory
same,"DLT Corresponding Neuropsych Symptoms, Cognitive",[2],Speed/ Efficiency Working Memory
same,"DLT Corresponding Neuropsych Symptoms, Psychosocial",[2],Adaptive Skills Anxiety
same,"Pre-Cycle Neuropsych Symptoms, Psychosocial","patient with CNS DLT, A1 (< 18 yrs), DL 5 (115 mg/m^2)",Atypicality Adaptive Skills
same,"Pre-Cycle Neuropsych Symptoms, Cognitive","patient with CNS DLT, A1 (< 18 yrs), DL 5 (115 mg/m^2), decline from baseline",Stable
same,"Pre-Cycle Neuropsych Symptoms, Cognitive",[3],Speed/ Efficiency Working Memory
same,"Pre-Cycle Neuropsych Symptoms, Psychosocial",[3],Adaptive Skills Attention
same,"Pre-Cycle Neuropsych Symptoms, Cognitive",[4],Speed/ Efficiency
same,"Pre-Cycle Neuropsych Symptoms, Psychosocial",[4],Atypicality Anxiety
same,"Pre-Cycle Neuropsych Symptoms, Cognitive",[5],Stable; also recorded: Visual Memory
same,"Pre-Cycle Neuropsych Symptoms, Psychosocial",[5],Adaptive Skills Anxiety Emotional Lability Working Memory Atypicality; also recorded: Depression Emotional Lability Working Memory
